{
  "source": "the supplement of paper PMC10307832",
  "assay_in_all_cases": "relative viability (nuclei count vs DMSO), 5 days (fraction); higher = more cells survive",
  "key": {"[1]": {"system": "LXF-289", "procedure,_shortened": "(§1)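 Lung cancer cell lines were pin-tool dosed in 1536-well plates on the day after seeding, with either a lone drug or a fixed anchor-drug dose plus five library-drug doses (not always all listed) in √10 steps. Nuclei were counted on 4× images after 5 days. Relative viability is the ratio of treated-well to vehicle-well nuclei counts, with each value a median of duplicate plates.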"}, "[2]": {"system": "SW 1573", "procedure,_shortened": "as §1"}, "[3]": {"system": "NCI-H661", "procedure,_shortened": "as §1"}, "[4]": {"system": "NCI-H727", "procedure,_shortened": "as §1"}, "[5]": {"system": "PC-14", "procedure,_shortened": "as §1"}, "[6]": {"system": "NCI-H2023", "procedure,_shortened": "as §1"}, "[7]": {"system": "NCI-H2009", "procedure,_shortened": "as §1"}, "[8]": {"system": "EMC-BAC-2", "procedure,_shortened": "as §1"}, "[9]": {"system": "NCI-H2085", "procedure,_shortened": "as §1"}, "[10]": {"system": "NCI-H1915", "procedure,_shortened": "as §1"}, "[11]": {"system": "NCI-H647", "procedure,_shortened": "as §1"}, "[12]": {"system": "SK-LU-1", "procedure,_shortened": "as §1"}, "[13]": {"system": "NCI-H322M", "procedure,_shortened": "as §1"}, "[14]": {"system": "NCI-H2347", "procedure,_shortened": "as §1"}, "[15]": {"system": "HOP-62", "procedure,_shortened": "as §1"}, "[16]": {"system": "NCI-H1993", "procedure,_shortened": "as §1"}, "[17]": {"system": "BEN", "procedure,_shortened": "as §1"}, "[18]": {"system": "NCI-H2126", "procedure,_shortened": "as §1"}, "[19]": {"system": "NCI-H358", "procedure,_shortened": "as §1"}, "[20]": {"system": "LCLC-97TM1", "procedure,_shortened": "as §1"}, "[21]": {"system": "NCI-H2342", "procedure,_shortened": "as §1"}, "[22]": {"system": "H3255", "procedure,_shortened": "as §1"}, "[23]": {"system": "NCI-H1650", "procedure,_shortened": "as §1"}, "[24]": {"system": "NCI-H1563", "procedure,_shortened": "as §1"}},
  "data": [
    {"compound": "C[C@@H]1CN(CC(=O)Nc2ccc3c(c2)Cc2cccc(-c4cc(=O)cc(N5CCOCC5)o4)c2S3)C[C@H](C)O1", "note": "+ N=C(N)NC(=N)NCCc1ccccc1 [Phenformin] (partner 250 µM)", "values": [
      {"measurement": "relative viability", "setting": "[1]; first compound 0.04 µM", "result": 0.482},
      {"measurement": "relative viability", "setting": "[1]; first compound 0.1265 µM", "result": 0.517},
      {"measurement": "relative viability", "setting": "[1]; first compound 0.4 µM", "result": 0.549},
      {"measurement": "relative viability", "setting": "[1]; first compound 4 µM", "result": 0.517},
      {"measurement": "relative viability", "setting": "[2]; first compound 0.04 µM", "result": 0.438},
      {"measurement": "relative viability", "setting": "[2]; first compound 0.1265 µM", "result": 0.315},
      {"measurement": "relative viability", "setting": "[2]; first compound 0.4 µM", "result": 0.301},
      {"measurement": "relative viability", "setting": "[2]; first compound 4 µM", "result": 0.312},
      {"measurement": "relative viability", "setting": "[3]; first compound 0.04 µM", "result": 0.261},
      {"measurement": "relative viability", "setting": "[3]; first compound 0.1265 µM", "result": 0.274},
      {"measurement": "relative viability", "setting": "[3]; first compound 0.4 µM", "result": 0.262},
      {"measurement": "relative viability", "setting": "[3]; first compound 4 µM", "result": 0.317},
      {"measurement": "relative viability", "setting": "[4]; first compound 0.04 µM", "result": 0.626},
      {"measurement": "relative viability", "setting": "[4]; first compound 0.1265 µM", "result": 0.663},
      {"measurement": "relative viability", "setting": "[4]; first compound 0.4 µM", "result": 0.599},
      {"measurement": "relative viability", "setting": "[4]; first compound 4 µM", "result": 0.544},
      {"measurement": "relative viability", "setting": "[5]; first compound 0.04 µM", "result": 0.377},
      {"measurement": "relative viability", "setting": "[5]; first compound 0.1265 µM", "result": 0.528},
      {"measurement": "relative viability", "setting": "[5]; first compound 0.4 µM", "result": 0.556},
      {"measurement": "relative viability", "setting": "[5]; first compound 4 µM", "result": 0.574},
      {"measurement": "relative viability", "setting": "[6]; first compound 0.04 µM", "result": 0.458},
      {"measurement": "relative viability", "setting": "[6]; first compound 0.1265 µM", "result": 0.432},
      {"measurement": "relative viability", "setting": "[6]; first compound 0.4 µM", "result": 0.385},
      {"measurement": "relative viability", "setting": "[6]; first compound 4 µM", "result": 0.344},
      {"measurement": "relative viability", "setting": "[7]; first compound 0.04 µM", "result": 0.525},
      {"measurement": "relative viability", "setting": "[7]; first compound 0.1265 µM", "result": 0.494},
      {"measurement": "relative viability", "setting": "[7]; first compound 0.4 µM", "result": 0.453},
      {"measurement": "relative viability", "setting": "[7]; first compound 4 µM", "result": 0.384},
      {"measurement": "relative viability", "setting": "[8]; first compound 0.04 µM", "result": 0.56},
      {"measurement": "relative viability", "setting": "[8]; first compound 0.1265 µM", "result": 0.566},
      {"measurement": "relative viability", "setting": "[8]; first compound 0.4 µM", "result": 0.495},
      {"measurement": "relative viability", "setting": "[8]; first compound 4 µM", "result": 0.513},
      {"measurement": "relative viability", "setting": "[9]; first compound 0.04 µM", "result": 0.763},
      {"measurement": "relative viability", "setting": "[9]; first compound 0.1265 µM", "result": 0.732},
      {"measurement": "relative viability", "setting": "[9]; first compound 0.4 µM", "result": 0.694},
      {"measurement": "relative viability", "setting": "[9]; first compound 4 µM", "result": 0.595},
      {"measurement": "relative viability", "setting": "[10]; first compound 0.04 µM", "result": 0.379},
      {"measurement": "relative viability", "setting": "[10]; first compound 0.1265 µM", "result": 0.388},
      {"measurement": "relative viability", "setting": "[10]; first compound 0.4 µM", "result": 0.382},
      {"measurement": "relative viability", "setting": "[10]; first compound 4 µM", "result": 0.362},
      {"measurement": "relative viability", "setting": "[11]; first compound 0.04 µM", "result": 0.472},
      {"measurement": "relative viability", "setting": "[11]; first compound 0.1265 µM", "result": 0.456},
      {"measurement": "relative viability", "setting": "[11]; first compound 0.4 µM", "result": 0.606},
      {"measurement": "relative viability", "setting": "[11]; first compound 4 µM", "result": 0.504},
      {"measurement": "relative viability", "setting": "[12]; first compound 0.04 µM", "result": 0.621},
      {"measurement": "relative viability", "setting": "[12]; first compound 0.1265 µM", "result": 0.531},
      {"measurement": "relative viability", "setting": "[12]; first compound 0.4 µM", "result": 0.516},
      {"measurement": "relative viability", "setting": "[12]; first compound 4 µM", "result": 0.373},
      {"measurement": "relative viability", "setting": "[13]; first compound 0.04 µM", "result": 0.701},
      {"measurement": "relative viability", "setting": "[13]; first compound 0.1265 µM", "result": 0.74},
      {"measurement": "relative viability", "setting": "[13]; first compound 0.4 µM", "result": 0.729},
      {"measurement": "relative viability", "setting": "[13]; first compound 4 µM", "result": 0.691},
      {"measurement": "relative viability", "setting": "[14]; first compound 0.04 µM", "result": 0.412},
      {"measurement": "relative viability", "setting": "[14]; first compound 0.1265 µM", "result": 0.547},
      {"measurement": "relative viability", "setting": "[14]; first compound 0.4 µM", "result": 0.368},
      {"measurement": "relative viability", "setting": "[14]; first compound 4 µM", "result": 0.449},
      {"measurement": "relative viability", "setting": "[15]; first compound 0.04 µM", "result": 0.613},
      {"measurement": "relative viability", "setting": "[15]; first compound 0.1265 µM", "result": 0.689},
      {"measurement": "relative viability", "setting": "[15]; first compound 0.4 µM", "result": 0.715},
      {"measurement": "relative viability", "setting": "[15]; first compound 4 µM", "result": 0.615},
      {"measurement": "relative viability", "setting": "[16]; first compound 0.04 µM", "result": 0.532},
      {"measurement": "relative viability", "setting": "[16]; first compound 0.1265 µM", "result": 0.497},
      {"measurement": "relative viability", "setting": "[16]; first compound 0.4 µM", "result": 0.481},
      {"measurement": "relative viability", "setting": "[16]; first compound 4 µM", "result": 0.498},
      {"measurement": "relative viability", "setting": "[17]; first compound 0.04 µM", "result": 0.254},
      {"measurement": "relative viability", "setting": "[17]; first compound 0.1265 µM", "result": 0.261},
      {"measurement": "relative viability", "setting": "[17]; first compound 0.4 µM", "result": 0.294},
      {"measurement": "relative viability", "setting": "[17]; first compound 4 µM", "result": 0.264},
      {"measurement": "relative viability", "setting": "[18]; first compound 0.04 µM", "result": 0.573},
      {"measurement": "relative viability", "setting": "[18]; first compound 0.1265 µM", "result": 0.528},
      {"measurement": "relative viability", "setting": "[18]; first compound 0.4 µM", "result": 0.531},
      {"measurement": "relative viability", "setting": "[18]; first compound 4 µM", "result": 0.454},
      {"measurement": "relative viability", "setting": "[19]; first compound 0.04 µM", "result": 0.362},
      {"measurement": "relative viability", "setting": "[19]; first compound 0.1265 µM", "result": 0.28},
      {"measurement": "relative viability", "setting": "[19]; first compound 0.4 µM", "result": 0.371},
      {"measurement": "relative viability", "setting": "[19]; first compound 4 µM", "result": 0.28},
      {"measurement": "relative viability", "setting": "[20]; first compound 0.04 µM", "result": 0.354},
      {"measurement": "relative viability", "setting": "[20]; first compound 0.1265 µM", "result": 0.469},
      {"measurement": "relative viability", "setting": "[20]; first compound 0.4 µM", "result": 0.433},
      {"measurement": "relative viability", "setting": "[20]; first compound 4 µM", "result": 0.483},
      {"measurement": "relative viability", "setting": "[21]; first compound 0.04 µM", "result": 0.625},
      {"measurement": "relative viability", "setting": "[21]; first compound 0.1265 µM", "result": 0.568},
      {"measurement": "relative viability", "setting": "[21]; first compound 0.4 µM", "result": 0.525},
      {"measurement": "relative viability", "setting": "[21]; first compound 4 µM", "result": 0.519},
      {"measurement": "relative viability", "setting": "[22]; first compound 0.04 µM", "result": 0.388},
      {"measurement": "relative viability", "setting": "[22]; first compound 0.1265 µM", "result": 0.364},
      {"measurement": "relative viability", "setting": "[22]; first compound 0.4 µM", "result": 0.319},
      {"measurement": "relative viability", "setting": "[22]; first compound 4 µM", "result": 0.367},
      {"measurement": "relative viability", "setting": "[23]; first compound 0.04 µM", "result": 0.406},
      {"measurement": "relative viability", "setting": "[23]; first compound 0.1265 µM", "result": 0.431},
      {"measurement": "relative viability", "setting": "[23]; first compound 0.4 µM", "result": 0.37},
      {"measurement": "relative viability", "setting": "[23]; first compound 4 µM", "result": 0.347},
      {"measurement": "relative viability", "setting": "[24]; first compound 0.04 µM", "result": 0.692},
      {"measurement": "relative viability", "setting": "[24]; first compound 0.1265 µM", "result": 0.636},
      {"measurement": "relative viability", "setting": "[24]; first compound 0.4 µM", "result": 0.659},
      {"measurement": "relative viability", "setting": "[24]; first compound 4 µM", "result": 0.677}
    ]}
  ]
}
